Results: the supplement of paper PMC10307832

Columns and labels:
Test in all cases: relative viability (nuclei count vs DMSO), 5 days (fraction); higher = more cells survive
[1] = compound: C[As](C)SC[C@H](NC(=O)CC[C@H](N)C(=O)O)C(=O)NCC(=O)O [Darinaparsin] + CC1(C)CCC(c2ccc(Cl)cc2)=C(CN2CCN(c3ccc(C(=O)NS(=O)(=O)c4ccc(N[C@H](CCN5CCOCC5)CSc5ccccc5)c(S(=O)(=O)C(F)(F)F)c4)cc3)CC2)C1 [Navitoclax] (partner 0.5 µM)
In short: (§1)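 Relative viability divides the nuclei count in treated wells by that in vehicle wells. Lung cancer cell lines were seeded in 1536-well plates, dosed by pin tool the next day, and fixed and stained after 5 days in one step with final 0.05% Triton X-100, 1% formaldehyde and 1 ug/ml Hoechst. Dosing was a single drug or a fixed anchor-drug dose plus five library-drug doses (not always all listed) in √10 steps, and values are medians of duplicate plates imaged at 4×.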

QS11 + Palbociclib = compound: C1CC2=C(C1)C=C(C=C2)OC3=NC(=C4C(=N3)N(C=N4)CC5=CC=C(C=C5)C6=CC=CC=C6)N[C@@H](CC7=CC=CC=C7)CO [QS11] + CC(=O)c1c(C)c2cnc(Nc3ccc(N4CCNCC4)cn3)nc2n(C2CCCC2)c1=O [Palbociclib] (partner 0.5 µM)
In short: as §1

Darinaparsin + AZD7762 = compound: C[As](C)SC[C@H](NC(=O)CC[C@H](N)C(=O)O)C(=O)NCC(=O)O [Darinaparsin] + NC(=O)Nc1cc(-c2cccc(F)c2)sc1C(=O)N[C@H]1CCCNC1 [AZD7762] (partner 0.2 µM)
In short: as §1

QS11 + Olaparib = compound: C1CC2=C(C1)C=C(C=C2)OC3=NC(=C4C(=N3)N(C=N4)CC5=CC=C(C=C5)C6=CC=CC=C6)N[C@@H](CC7=CC=CC=C7)CO [QS11] + O=C(c1cc(Cc2n[nH]c(=O)c3ccccc23)ccc1F)N1CCN(C(=O)C2CC2)CC1 [Olaparib] (partner 8 µM)
In short: as §1

Cell Line	relative viability ([1]; first compound 0.08 µM)	relative viability ([1]; first compound 0.8 µM)	relative viability ([1]; first compound 2.53 µM)	relative viability ([1]; first compound 8 µM)	relative viability (QS11 + Palbociclib; first compound 0.08 µM)	relative viability (QS11 + Palbociclib; first compound 0.253 µM)	relative viability (QS11 + Palbociclib; first compound 0.8 µM)	relative viability (QS11 + Palbociclib; first compound 2.53 µM)	relative viability (QS11 + Palbociclib; first compound 8 µM)	relative viability (Darinaparsin + AZD7762; first compound 0.08 µM)	relative viability (Darinaparsin + AZD7762; first compound 0.8 µM)	relative viability (Darinaparsin + AZD7762; first compound 2.53 µM)	relative viability (Darinaparsin + AZD7762; first compound 8 µM)	relative viability (QS11 + Olaparib; first compound 0.08 µM)	relative viability (QS11 + Olaparib; first compound 0.253 µM)	relative viability (QS11 + Olaparib; first compound 0.8 µM)	relative viability (QS11 + Olaparib; first compound 2.53 µM)	relative viability (QS11 + Olaparib; first compound 8 µM)
NCI-H322M	1.25	1.17	1.13	1.33	0.516	0.461	0.468	0.517	0.593	0.585	0.42	0.488	0.518	0.715	0.947	0.802	0.846	1.06
NCI-H2126	0.949	0.835	0.856	0.86	0.345	0.381	0.341	0.343	0.304	1.14	1.03	0.917	1.14	0.874	0.95	0.8	0.799	0.634
NCI-H2405	0.801	0.829	0.781	0.88	0.544	0.541	0.488	0.536	0.502	1.04	0.666	0.68	0.817	0.847	0.803	0.768	0.961	0.83
NCI-H1944	1.06	1.07	1.04	1.06	0.312	0.344		0.275	0.254	0.469	0.518	0.527	0.427	0.395	0.482		0.397	0.394
EKVX	1.14	0.825	0.918	1.15	0.401	0.375	0.33	0.284	0.391	0.817	0.739	0.726	0.82	0.829	0.768	0.715	0.822	1.01
